Measurements published in US10508120B2, “TYK2 inhibitors and uses thereof” (Nimbus Lakshmi, Inc., priority 2017, dated 2019).

Legend:
[1] = molecular target: human TYK2 (JH2domain-pseudokinase) (Homo sapiens (Human), UniProt P29597); experiment: TYK2 JH2 Domain Binding Assay (KINOMEscan)
Method in brief: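 The construct was human TYK2 G556–D888 fused to the NFkB DNA-binding domain and expressed in HEK293 cells; unpurified extract was incubated with compound and liganded beads for 1 hour at room temperature.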

[2] = molecular target: Tyk2/JAK2 (heterodimeric complex) (Homo sapiens (Human), UniProt P29597); experiment: IL-12 Induced pSTAT4 in Human PBMC; assay type: cell-based; conditions: 1.7 ng/mL IL-12
Chain of Tyk2/JAK2 (heterodimeric complex) (P29597 whole entry, other chains not shown): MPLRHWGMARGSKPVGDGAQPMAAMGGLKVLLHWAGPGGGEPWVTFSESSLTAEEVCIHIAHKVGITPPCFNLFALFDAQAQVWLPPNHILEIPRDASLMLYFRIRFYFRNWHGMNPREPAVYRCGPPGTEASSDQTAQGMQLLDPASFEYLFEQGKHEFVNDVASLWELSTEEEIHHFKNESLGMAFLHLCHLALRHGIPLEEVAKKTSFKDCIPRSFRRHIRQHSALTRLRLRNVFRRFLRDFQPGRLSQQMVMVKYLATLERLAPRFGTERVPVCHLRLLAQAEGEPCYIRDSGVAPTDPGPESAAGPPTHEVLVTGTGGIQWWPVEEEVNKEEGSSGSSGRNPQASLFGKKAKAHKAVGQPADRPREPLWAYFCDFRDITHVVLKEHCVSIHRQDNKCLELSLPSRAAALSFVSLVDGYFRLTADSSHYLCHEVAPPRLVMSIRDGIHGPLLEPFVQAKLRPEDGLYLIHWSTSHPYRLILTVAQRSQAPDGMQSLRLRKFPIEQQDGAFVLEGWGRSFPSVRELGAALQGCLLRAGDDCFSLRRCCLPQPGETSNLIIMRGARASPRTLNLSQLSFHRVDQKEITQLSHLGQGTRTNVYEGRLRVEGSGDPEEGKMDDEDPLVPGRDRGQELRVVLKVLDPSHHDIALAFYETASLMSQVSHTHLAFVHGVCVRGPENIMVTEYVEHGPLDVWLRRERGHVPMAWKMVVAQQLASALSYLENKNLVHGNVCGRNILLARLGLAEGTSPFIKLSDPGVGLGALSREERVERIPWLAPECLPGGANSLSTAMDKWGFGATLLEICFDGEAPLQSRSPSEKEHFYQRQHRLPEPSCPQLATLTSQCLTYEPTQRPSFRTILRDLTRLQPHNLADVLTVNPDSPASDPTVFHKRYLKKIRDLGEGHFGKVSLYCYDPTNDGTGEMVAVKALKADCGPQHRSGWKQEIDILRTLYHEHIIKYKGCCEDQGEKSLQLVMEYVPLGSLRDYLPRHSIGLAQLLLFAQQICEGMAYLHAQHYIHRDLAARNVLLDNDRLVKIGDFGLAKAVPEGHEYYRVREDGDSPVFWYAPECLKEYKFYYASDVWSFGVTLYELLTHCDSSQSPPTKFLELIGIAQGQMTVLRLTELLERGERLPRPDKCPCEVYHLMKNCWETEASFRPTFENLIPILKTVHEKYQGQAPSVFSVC
From the text: The IL-12 Induced pSTAT4 assay evaluates the inhibition of IL-12 induced STAT4 phophorylation mediated by Tyk2/JAK2 (heterodimeric complex).

[3] = molecular target: JAK2 kinase domain (JH1) (Homo sapiens (Human), UniProt O60674); experiment: JAK2 Radioactive Kinase Assay; assay type: biochemical; conditions: 10 μM compound, 10 μM ATP; for inhibition at 10 µM: read-out: JAK2 JH1% Inhibition @ 10 μM
Chain of JAK2 kinase domain (JH1) (O60674 849-1124): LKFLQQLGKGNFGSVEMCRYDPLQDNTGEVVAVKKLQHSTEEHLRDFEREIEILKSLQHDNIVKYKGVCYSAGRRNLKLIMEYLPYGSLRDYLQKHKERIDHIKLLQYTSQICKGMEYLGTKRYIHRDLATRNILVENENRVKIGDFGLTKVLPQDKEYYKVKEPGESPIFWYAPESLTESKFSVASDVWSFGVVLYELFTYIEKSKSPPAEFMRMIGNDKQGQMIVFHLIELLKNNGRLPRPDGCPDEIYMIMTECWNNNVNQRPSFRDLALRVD
Method in brief: (§1)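 Single-point screen: 10 μM test compound, radioactive kinase read-out, percent inhibition reported for each kinase domain.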

[4] = molecular target: Tyk2 kinase domain (DH1) (Homo sapiens (Human), UniProt P29597); experiment: Tyk2 Radioactive Kinase Assay; assay type: biochemical; conditions: 10 μM compound, 10 μM ATP; for inhibition at 10 µM: read-out: Tyk2 JH1% Inhibition @ 10 μM
Chain of Tyk2 kinase domain (DH1) (P29597 897-1176): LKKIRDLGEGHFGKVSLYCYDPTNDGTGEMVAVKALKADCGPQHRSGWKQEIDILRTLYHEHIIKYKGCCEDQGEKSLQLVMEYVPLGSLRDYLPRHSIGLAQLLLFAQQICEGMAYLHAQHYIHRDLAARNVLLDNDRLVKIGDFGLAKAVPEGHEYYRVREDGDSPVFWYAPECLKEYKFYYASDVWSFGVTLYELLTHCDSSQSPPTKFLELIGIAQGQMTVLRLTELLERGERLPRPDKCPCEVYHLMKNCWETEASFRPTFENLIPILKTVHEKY
Method in brief: as §1

[5] = molecular target: JAK2/JAK2 homdimeric complex (Homo sapiens (Human), UniProt O60674); experiment: GM-CSF Induced pSTAT5 in Human PBMC; assay type: cell-based; conditions: GM-CSF 5 ng/mL for 20 minutes, pSTAT5 by MSD, read-out: PBMC_GMCSF_pSTAT5 IC50
Chain of JAK2/JAK2 homdimeric complex (O60674 whole entry): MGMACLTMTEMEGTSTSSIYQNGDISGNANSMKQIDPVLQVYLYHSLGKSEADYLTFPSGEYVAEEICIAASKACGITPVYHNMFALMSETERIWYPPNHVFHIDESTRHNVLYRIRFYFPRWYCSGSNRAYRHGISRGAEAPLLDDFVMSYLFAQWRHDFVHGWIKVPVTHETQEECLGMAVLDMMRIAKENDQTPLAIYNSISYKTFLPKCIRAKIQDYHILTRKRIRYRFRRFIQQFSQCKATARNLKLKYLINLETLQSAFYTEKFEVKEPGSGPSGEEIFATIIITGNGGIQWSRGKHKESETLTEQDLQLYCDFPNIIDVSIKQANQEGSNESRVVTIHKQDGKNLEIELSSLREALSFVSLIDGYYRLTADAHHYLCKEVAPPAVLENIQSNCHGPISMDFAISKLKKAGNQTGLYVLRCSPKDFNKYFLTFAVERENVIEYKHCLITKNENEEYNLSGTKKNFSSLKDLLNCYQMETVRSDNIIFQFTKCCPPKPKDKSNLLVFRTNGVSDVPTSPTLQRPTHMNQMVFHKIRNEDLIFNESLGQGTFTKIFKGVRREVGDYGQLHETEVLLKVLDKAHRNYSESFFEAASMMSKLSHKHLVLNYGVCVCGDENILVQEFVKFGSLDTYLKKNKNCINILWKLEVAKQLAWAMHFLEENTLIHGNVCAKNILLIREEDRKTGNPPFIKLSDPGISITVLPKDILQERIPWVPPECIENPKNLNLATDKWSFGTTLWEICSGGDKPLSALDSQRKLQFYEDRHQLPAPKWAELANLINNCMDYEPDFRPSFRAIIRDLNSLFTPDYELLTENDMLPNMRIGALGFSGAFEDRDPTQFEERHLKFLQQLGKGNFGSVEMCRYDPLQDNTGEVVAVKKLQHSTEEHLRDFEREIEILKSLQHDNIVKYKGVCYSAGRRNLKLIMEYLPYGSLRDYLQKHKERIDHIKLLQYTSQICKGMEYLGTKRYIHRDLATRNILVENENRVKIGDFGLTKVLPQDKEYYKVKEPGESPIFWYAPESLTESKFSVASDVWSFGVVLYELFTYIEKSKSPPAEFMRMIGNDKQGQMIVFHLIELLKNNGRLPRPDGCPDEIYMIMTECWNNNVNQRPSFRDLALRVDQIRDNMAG
Chain of JAK2/JAK2 homdimeric complex (P32927 17-897 partner): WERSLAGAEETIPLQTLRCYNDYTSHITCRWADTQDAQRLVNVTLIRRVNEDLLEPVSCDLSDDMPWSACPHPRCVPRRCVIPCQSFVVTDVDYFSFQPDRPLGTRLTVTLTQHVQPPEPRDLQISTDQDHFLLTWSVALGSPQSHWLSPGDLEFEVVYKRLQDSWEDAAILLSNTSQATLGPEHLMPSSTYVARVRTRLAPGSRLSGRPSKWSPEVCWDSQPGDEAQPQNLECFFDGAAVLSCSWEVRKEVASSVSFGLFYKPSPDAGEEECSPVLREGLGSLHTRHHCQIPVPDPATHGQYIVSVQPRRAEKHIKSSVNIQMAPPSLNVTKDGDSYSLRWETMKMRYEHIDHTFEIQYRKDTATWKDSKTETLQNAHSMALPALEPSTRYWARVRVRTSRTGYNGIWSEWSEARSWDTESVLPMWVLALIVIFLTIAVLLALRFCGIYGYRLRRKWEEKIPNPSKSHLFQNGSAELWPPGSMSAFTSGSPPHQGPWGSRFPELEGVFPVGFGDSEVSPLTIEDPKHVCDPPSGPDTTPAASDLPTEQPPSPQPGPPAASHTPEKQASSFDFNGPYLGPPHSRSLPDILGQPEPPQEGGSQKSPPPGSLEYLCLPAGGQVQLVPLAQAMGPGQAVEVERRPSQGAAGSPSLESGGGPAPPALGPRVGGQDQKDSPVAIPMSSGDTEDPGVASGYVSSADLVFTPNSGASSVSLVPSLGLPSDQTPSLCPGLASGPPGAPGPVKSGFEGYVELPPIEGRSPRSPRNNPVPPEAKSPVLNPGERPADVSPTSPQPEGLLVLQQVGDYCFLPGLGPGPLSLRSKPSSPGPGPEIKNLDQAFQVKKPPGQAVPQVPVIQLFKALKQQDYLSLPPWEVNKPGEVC

Chain of human TYK2 (JH2domain-pseudokinase) (P29597 556-888): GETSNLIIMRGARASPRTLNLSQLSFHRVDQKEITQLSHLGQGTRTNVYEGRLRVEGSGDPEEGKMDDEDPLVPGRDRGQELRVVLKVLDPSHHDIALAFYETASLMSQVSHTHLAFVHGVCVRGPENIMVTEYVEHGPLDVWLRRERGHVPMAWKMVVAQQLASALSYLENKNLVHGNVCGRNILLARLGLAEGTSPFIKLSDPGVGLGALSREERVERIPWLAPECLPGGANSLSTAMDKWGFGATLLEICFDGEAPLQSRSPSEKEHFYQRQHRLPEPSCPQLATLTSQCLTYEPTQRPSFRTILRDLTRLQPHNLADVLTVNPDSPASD

| Structure (SMILES) | Kd [1] [µM] | IC50 [2] [µM] | inhibition at 10 µM [3] [%] | inhibition at 10 µM [4] [%] | IC50 [5] [µM] | JAK2 JH1% Inhibition @ 10 μM [3] | Tyk2 JH1% Inhibition @ 10 μM [4] |
| --- | --- | --- | --- | --- | --- | --- | --- |
| CNc1cc(Nc2cccn([C@H]3CCC[C@H](O)C3)c2=O)nc2c(C(=O)N[C@@H]3CC[C@H]3OC)cnn12 [I-1395] | 0.0002 to 0.001 | < 0.1 | – | – | – | – | – |
| CNc1cc(Nc2cccn([C@@H]3CC[C@@H]3O)c2=O)nc2c(C(=O)N[C@@H]3CC[C@H]3OC)cnn12 [I-1350] | < 0.0002 | < 0.1 | – | – | – | – | – |
| CNc1cc(Nc2cccn([C@H]3CCC[C@H]3O)c2=O)nc2c(C(=O)N[C@H]3CC[C@@H]3OC)cnn12 [I-1373] | – | < 0.1 | – | – | – | – | – |
| CNc1cc(Nc2cccn([C@@H]3CCC[C@@H](O)C3)c2=O)nc2c(C(=O)N[C@@H]3C[C@@H]3F)cnn12 [I-1029] | < 0.0002 | – | < 50 | < 50 | > 2.5 | – | – |
| CNc1cc(Nc2cccc3ocnc23)nc2c(C(=O)NC3CC[C@@H]3OC)cnn12 (some centres unmarked) [I-1051, 5-(benzo[d]oxazol-4-ylamino)-N-(2-methoxycyclobutyl)-7-(methylamino) pyrazolo[1,5-a]pyrimidine-3-carboxamide] | < 0.0002 | – | < 50 | < 50 | > 50 | – | – |
| CNc1cc(Nc2cccc(N3CCCC3=O)n2)nc2c(C(=O)N[C@H]3CC[C@H]3O)cnn12 [I-969] | < 0.0002 | – | < 50 | < 50 | > 50 | – | – |
| CNc1cc(Nc2cccn([C@@H]3CCC[C@H](OC)C3)c2=O)nc2c(C(=O)N[C@@H]3CC[C@H]3OC)cnn12 [I-1082] | < 0.0002 | – | < 50 | < 50 | > 50 | – | – |
| CNc1cc(Nc2cccn([C@H]3CC[C@](C)(OC)CC3)c2=O)nc2c(C(=O)N[C@@H]3CC[C@H]3O)cnn12 [I-1107] | < 0.0002 | – | < 50 | < 50 | > 2.5 | – | – |
| CNc1cc(Nc2cccn([C@H]3CCCN(CCF)C3)c2=O)nc2c(C(=O)N[C@@H]3CC[C@H]3OC)cnn12 [I-1059] | < 0.0002 | – | < 50 | < 50 | > 50 | – | – |
| CNc1cc(Nc2cccn([C@H]3CCC[C@H](OC)C3)c2=O)nc2c(C(=O)N[C@H]3CC[C@@H]3OC)cnn12 [I-1098] | < 0.0002 | – | < 50 | < 50 | > 50 | – | – |
| CNc1cc(Nc2cccn([C@H]3CC[C@](C)(OC)CC3)c2=O)nc2c(C(=O)N[C@H]3CC[C@@H]3OC)cnn12 [I-1105] | < 0.0002 | – | < 50 | < 50 | > 50 | – | – |
| CNc1cc(Nc2cccn3cnnc23)nc2c(C(=O)N[C@H]3CC[C@@H]3OC)cnn12 [I-1343] | – | < 0.1 | – | – | – | – | – |
| CNc1cc(Nc2cccn([C@H]3CCC[C@H](O)C3)c2=O)nc2c(C(=O)N[C@H]3CC[C@@H]3OC)cnn12 [I-1063] | < 0.0002 | – | < 50 | < 50 | > 50 | – | – |
| CNc1cc(Nc2cccn(-c3ncc(C)s3)c2=O)nc2c(C(=O)N[C@@H]3CC[C@@H]3O)cnn12 [I-1073] | < 0.0002 | – | < 50 | < 50 | > 50 | – | – |
| CNc1cc(Nc2cccn([C@H]3CCN(CCF)C3)c2=O)nc2c(C(=O)N[C@H]3CC[C@@H]3OC)cnn12 [I-1050, 5-((1-((S)-1-(2-fluoroethyl)pyrrolidin-3-yl)-2-oxo-1,2-dihydropyridin-3-yl)amino)-N-((1 S,2S)-2-methoxycyclobutyl)-7-(methylamino)pyrazolo[1,5-a]pyrimidine-3-carboxamide] | < 0.0002 | – | < 50 | < 50 | > 50 | – | – |
| CNc1cc(Nc2cccn(-c3ccccc3F)c2=O)nc2c(C(=O)N[C@H]3CC[C@H]3O)cnn12 [I-1035] | < 0.0002 | – | < 50 | < 50 | > 2.5 | – | – |
| CNc1cc(-c2cn(C3CC3)c3ncccc23)nc2c(C(=O)N[C@H]3CC[C@@H]3OC)cnn12 (stereo in doubt) [I-1067, 5-(1-cyclopropyl-1H-pyrrolo[2,3-b]pyridin-3-yl)-N-(2-methoxycyclobutyl)-7-(methylamino)pyrazolo[1,5-a]pyrimidine-3-carboxamide] | < 0.0002 | – | < 50 | < 50 | > 12.5 | – | – |
| CNc1cc(Nc2cccn([C@@H]3CC[C@H]3O)c2=O)nc2c(C(=O)N[C@@H]3C[C@@H]3F)cnn12 [I-999] | < 0.0002 | – | < 50 | < 50 | > 50 | – | – |

| Structure (SMILES) | Kd [1] [µM] | IC50 [2] [µM] | inhibition at 10 µM [3] [%] | inhibition at 10 µM [4] [%] | IC50 [5] [µM] | JAK2 JH1% Inhibition @ 10 μM [3] | Tyk2 JH1% Inhibition @ 10 μM [4] |
| --- | --- | --- | --- | --- | --- | --- | --- |
| CNc1cc(Nc2cccn([C@H]3CCC[C@H]3O)c2=O)nc2c(C(=O)NC3CC3)cnn12 [I-963] | < 0.0002 | – | < 50 | < 50 | > 50 | – | – |
| CNc1cc(Nc2cccn([C@H]3CCC[C@H](OC)C3)c2=O)nc2c(C(=O)N[C@@H]3CC3F)cnn12 (some centres unmarked) [I-1042] | < 0.0002 | – | < 50 | < 50 | > 2.5 | – | – |
| CNc1cc(-c2cn(C(C)C)c3ncc(F)cc23)nc2c(C(=O)N[C@H]3CC[C@@H]3OC)cnn12 [I-1053, 5-(5-fluoro-1-isopropyl-1H-pyrrolo[2,3-b]pyridin-3-yl)-N-((1S,2S)-2-methoycyclobutyl)-7-(methylamino)pyrazolo[1,5-a]pyrimidine-3-carboxamide] | < 0.0002 | – | < 50 | < 50 | > 12.5 | – | – |
| CNc1cc(-c2cn(C(C)C)c3ncc(F)cc23)nc2c(C(=O)N[C@H]3CC[C@H]3O)cnn12 [I-1013, 5-(5-fluoro-1-isopropyl-1-pyrrolo[2,3-b]pyridin-3-yl)-N-(2-hydroxycyclobutyl)-7-(methylamino)pyrazolo[1,5-a]pyrimidine-3-carboxamide] | < 0.0002 | – | < 50 | < 50 | > 12.5 | – | – |
| CNc1cc(Nc2cccn(-c3cnco3)c2=O)nc2c(C(=O)N[C@H]3CC[C@H]3O)cnn12 [I-1017] | < 0.0002 | – | < 50 | < 50 | > 12.5 | – | – |
| CNc1cc(Nc2cccn([C@H]3CCC[C@H](OC)C3)c2=O)nc2c(C(=O)NCC(C)(C)CO)cnn12 [I-1027] | < 0.0002 | – | < 50 | < 50 | > 50 | – | – |
| CNc1cc(Nc2cccn(-c3ccccc3F)c2=O)nc2c(C(=O)N[C@H]3CC[C@@H]3O)cnn12 [I-1038] | < 0.0002 | – | < 50 | < 50 | > 50 | – | – |
| CNc1cc(Nc2cccn3cnnc23)nc2c(C(=O)N[C@H]3CC[C@@H]3OC)cnn12 [I-1102] | < 0.0002 | – | < 50 | < 50 | > 2.5 | – | – |
| CNc1cc(Nc2cccn([C@H]3CCC[C@H](OC)C3)c2=O)nc2c(C(=O)NC3CC3)cnn12 [I-1025] | < 0.0002 | – | < 50 | < 50 | > 50 | – | – |
| CNc1cc(Nc2cccn(-c3cnn(C)c3F)c2=O)nc2c(C(=O)N[C@H]3CC[C@@H]3OC)cnn12 [I-1369] | – | < 0.1 | – | – | – | – | – |
| CNc1cc(Nc2cccn([C@H]3CCC[C@H](OC)C3)c2=O)nc2c(C(=O)NCC3(CO)CC3)cnn12 [I-1010] | < 0.0002 | – | < 50 | < 50 | > 50 | – | – |
| CNc1cc(Nc2cccn(-c3ncc(C)s3)c2=O)nc2c(C(=O)N[C@@H]3CC[C@H]3O)cnn12 [I-1070] | < 0.0002 | – | < 50 | < 50 | > 12.5 | – | – |
| CNc1cc(Nc2cccn([C@@H]3CCC[C@@H](OC)C3)c2=O)nc2c(C(=O)N[C@H]3CC[C@@H]3OC)cnn12 [I-1099] | < 0.0002 | – | < 50 | < 50 | > 50 | – | – |
| CNc1cc(Nc2cccn([C@H]3CC[C@](C)(OC)CC3)c2=O)nc2c(C(=O)N[C@@H]3CC[C@H]3O)cnn12 [I-962] | < 0.0002 | – | – | – | > 50 | A (percent inhibition at 10 μM lower than 50) | A (percent inhibition at 10 μM lower than 50) |
| CNc1cc(Nc2cccn([C@H]3CCCC[C@H]3O)c2=O)nc2c(C(=O)N[C@@H]3CC[C@H]3OC)cnn12 [I-1057] | < 0.0002 | – | < 50 | < 50 | > 50 | – | – |
| CNc1cc(Nc2cccn([C@H]3CCCC[C@H]3OC)c2=O)nc2c(C(=O)N[C@H]3CC[C@@H]3OC)cnn12 [I-1377] | – | < 0.1 | – | – | – | – | – |
| CNc1cc(Nc2cccn([C@@H]3CCN(CCF)C3)c2=O)nc2c(C(=O)NC3CCC3OC)cnn12 (stereo partly drawn) [I-1096, 5-((1-((R)-1-(2-fluoroethyl)pyrrolidin-3-yl)-2-oxo-1,2-dihydropyridin-3-yl)amino)-N-(2-methoxycyclobutyl)-7-(methylamino)pyrazolo[1,5-a]pyrimidine-3-carboxamide] | < 0.0002 | – | < 50 | < 50 | > 50 | – | – |
| CNc1cc(Nc2cccn3ccnc23)nc2c(C(=O)N[C@H]3CC[C@@H]3OC)cnn12 [I-1052] | < 0.0002 | – | < 50 | < 50 | > 50 | – | – |
